Results on 13 molecules are retold here after PubChem BioAssay (NCI).

“And” between values parts separate entries of the source, which are not always exact repeats. Equal values may be shown once.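 Five concentrations, 48 hours, 96-well plates. Here, GI50 denotes the concentration required for 50% inhibition of growth. Definition used: TGI = concentration required for complete inhibition of growth.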 Bounds are passed on as bounds.

Among the test systems are LXFL 529 NSCLC; DMS 273 small cell lung; HOP-18 NSCLC; DLD-1 colon; RXF-631 renal; DMS 114 small cell lung; SNB-78 CNS; HS 578T breast.
Experiment in all cases: NCI-60 cell line screen, 48 h

With `CC(=O)CC(=O)Nc1ccc(OS(N)(=O)=O)cc1`, the TGI in the experiment with LXFL 529 NSCLC, with DMS 273 small cell lung, with HOP-18 NSCLC, with DLD-1 colon, in the experiment on RXF-631 renal and with DMS 114 small cell lung was greater than 100 µM each time. In the experiment with SNB-78 CNS, this molecule showed a TGI greater than 100 µM.

In the case of `CCOC(=O)N1C/C(=C\c2ccc(N(C)C)cc2)C(=O)/C(=C/c2ccc(N(C)C)cc2)C1`, the TGI in the experiment with LXFL 529 NSCLC, in the experiment with DMS 273 small cell lung, with HOP-18 NSCLC, with DLD-1 colon, in the experiment with RXF-631 renal and with DMS 114 small cell lung was greater than 100 µM in each case. In the experiment with SNB-78 CNS, this molecule returned a TGI greater than 100 µM.

Regarding `CC[P+](C)(C)CC`, the TGI with LXFL 529 NSCLC, with DMS 273 small cell lung, in the experiment on HOP-18 NSCLC, in the experiment with DLD-1 colon, in the experiment on RXF-631 renal and in the experiment on DMS 114 small cell lung was greater than 100 µM each time. The molecule also yielded a TGI in the experiment on SNB-78 CNS greater than 100 µM.

For the molecule `CC(C)CC1CC2C(=O)N(c3ccccc3)C(=O)C2c2[nH]c3ccccc3c21` (centres undefined), the TGI in the experiment with LXFL 529 NSCLC was greater than 100 µM; with DMS 273 small cell lung it was greater than 100 µM; in the experiment with HOP-18 NSCLC, 31.4 µM; in the experiment with DLD-1 colon, greater than 100 µM; in the experiment with RXF-631 renal it was 51.8 µM; in the experiment with DMS 114 small cell lung, 52.7 µM. This molecule had a TGI in the experiment on SNB-78 CNS greater than 100 µM.

As for `O=C(OCc1ccccc1)N1N=NC2C3CC(OCc4ccccc4)(OCc4ccccc4)C(O3)C21` (centres undefined), the TGI is greater than 100 µM with LXFL 529 NSCLC; 94.9 µM in the experiment on DMS 273 small cell lung; 94 µM with HOP-18 NSCLC; greater than 100 µM with DLD-1 colon; greater than 100 µM in the experiment with RXF-631 renal; 53.1 µM in the experiment on DMS 114 small cell lung. Moreover, in the experiment with SNB-78 CNS, the TGI was greater than 100 µM.

In the case of `C=CCN=C1NC(=O)C(CC(=O)Nc2ccc([N+](=O)[O-])cc2[N+](=O)[O-])S1` (centres undefined), the TGI in the experiment on LXFL 529 NSCLC, with DMS 273 small cell lung, in the experiment with HOP-18 NSCLC, in the experiment on DLD-1 colon, in the experiment on RXF-631 renal and with DMS 114 small cell lung was greater than 100 µM in each case. The same molecule displayed a TGI in the experiment on SNB-78 CNS greater than 100 µM.

Take `NNC(=O)C(=O)N/N=C1\CCCC1C(=O)CCC(=O)Nc1cccc(Cl)c1` (centres undefined): the TGI in the experiment with LXFL 529 NSCLC, in the experiment with HOP-18 NSCLC, in the experiment on DLD-1 colon, with RXF-631 renal, in the experiment on DMS 114 small cell lung and in the experiment on SNB-78 CNS was greater than 100 µM in each case.

Take `CC[C@@]1(O)C(=O)OCc2c1cc1n(c2=O)Cc2cc3c(N)c(OC)ccc3nc2-1`: the GI50 with LXFL 529 NSCLC was 0.953 µM; with DMS 273 small cell lung, less than 0.0166 µM; in the experiment with HOP-18 NSCLC it was 0.14 µM; with DLD-1 colon it was 1 µM; with RXF-631 renal it was 0.176 µM; in the experiment with DMS 114 small cell lung, 0.0252 µM. Also, in the experiment on SNB-78 CNS, the GI50 was 1.22 µM. Besides, the TGI in the experiment on LXFL 529 NSCLC was greater than 25.6 µM; in the experiment with DMS 273 small cell lung, 0.36 µM; with HOP-18 NSCLC, greater than 100 µM; in the experiment on DLD-1 colon it was greater than 100 µM; in the experiment on RXF-631 renal, 2.74 µM; with DMS 114 small cell lung it was 0.189 µM. Moreover, in the experiment with SNB-78 CNS, the TGI was greater than 100 µM.

For the molecule `CCCCCCCCCCCCNC(=S)OCCCC`, the TGI with LXFL 529 NSCLC, in the experiment with DMS 273 small cell lung, in the experiment on HOP-18 NSCLC, in the experiment with DLD-1 colon, with RXF-631 renal and in the experiment on DMS 114 small cell lung was greater than 100 µM in each case. Moreover, the TGI in the experiment with SNB-78 CNS was greater than 100 µM.

As for `CC1=C(C(=O)Nc2cc(F)c(F)cc2F)C(c2ccc(N(C)C)cc2)C(C(=O)Nc2cc(F)c(F)cc2F)=C(C)N1`, in the experiment with HS 578T breast, the GI50 was 28.2 µM. Further, the TGI in the experiment with HS 578T breast is greater than 100 µM; in the experiment on LXFL 529 NSCLC it was 63 µM; in the experiment on DMS 273 small cell lung, greater than 100 µM; in the experiment with DLD-1 colon it was greater than 100 µM; in the experiment with RXF-631 renal, 86.2 µM; in the experiment with DMS 114 small cell lung, 62.8 µM. In the experiment on SNB-78 CNS, the TGI was found to be 65.4 µM.

On to `NNC(=S)N/N=C(\c1nc2ccc(Cl)cc2[nH]c1=O)C(O)c1cccc([N+](=O)[O-])c1` (centres undefined), for which the TGI in the experiment on LXFL 529 NSCLC is greater than 100 µM; in the experiment with DMS 273 small cell lung, greater than 58.7 µM; in the experiment with HOP-18 NSCLC, greater than 100 µM; in the experiment on RXF-631 renal, greater than 100 µM; in the experiment with DMS 114 small cell lung it was greater than 24.5 µM; in the experiment with SNB-78 CNS, greater than 100 µM.

Turning to `COc1ccc(-c2cc(-c3ccco3)c(C#N)c(=O)n2C2OC(COC(C)=O)C(OC(C)=O)C(OC(C)=O)C2OC(C)=O)cc1` (centres undefined), the TGI in the experiment with LXFL 529 NSCLC is 59.6 µM; in the experiment with DMS 273 small cell lung, greater than 100 µM; in the experiment with HOP-18 NSCLC, > 100 µM and 64.2 µM; with DLD-1 colon, greater than 100 µM; in the experiment on RXF-631 renal, > 100 µM and 46.5 µM; in the experiment on DMS 114 small cell lung, greater than 100 µM. This molecule gave a TGI in the experiment with SNB-78 CNS greater than 100 µM. In addition, the GI50 is > 100 µM and 14.3 µM with RXF-631 renal; > 100 µM and 21.6 µM in the experiment on DMS 114 small cell lung.

Turning to `Cc1ccccc1-c1cc(=O)c2cc(C)c(C)c(C(=O)O)c2o1`, the TGI in the experiment with LXFL 529 NSCLC, in the experiment with DMS 273 small cell lung, in the experiment with HOP-18 NSCLC, in the experiment with DLD-1 colon, in the experiment on RXF-631 renal and in the experiment with DMS 114 small cell lung was greater than 100 µM in each case. The molecule also returned a TGI in the experiment on SNB-78 CNS greater than 100 µM.
